# Assays:
# A498 = assay: Anticancer activity, SRB assay, renal cell line A498; assay type: cell-based, human; conditions: Homo sapiens, 48 h continuous drug exposure, —^b means GI50 values not attained at the concentrations used, read-out: Growth Inhibition GI50
# Description: (§1) Some of biological activity studies were carried out at the National Cancer Institute (NCI), Maryland, USA.
# (§2) The compounds were evaluated for anticancer activity against sixty human cancer cells derived from nine cancer types (leukemia cell line, non-small-cell lung cell line, colon cell line, CNS cell line, melanoma cell line, ovarian cell line, prostate cell line, renal cell line and breast cancer cell line) as shown in Table 1. For each compound, dose response curves for each cell line were measured at a minimum of five concentrations at 10 fold dilutions. A protocol of 48 h continuous drug exposure was used and a sulforhodamine B (SRB) protein assay was used to estimate cell viability or growth.
# OVCAR-4 = assay: Anticancer activity, SRB assay, ovarian cell line OVCAR-4; assay type: cell-based, human; conditions: Homo sapiens; Ovarian OVCAR-4; 48 h continuous drug exposure; —^b means GI50 values not attained at the concentrations used; read-out: Growth Inhibition GI50
# Description: as §1, §2
# HS 578T = assay: Anticancer activity, SRB assay, breast cell line HS 578T; assay type: cell-based, human; conditions: Homo sapiens; Breast HS 578T; 48 h continuous drug exposure; —^b means GI50 values not attained at the concentrations used; read-out: Growth Inhibition GI50
# Description: as §1, §2
# [1] = system: six breast cancer cell line (MCF-7, MDA-MB-231/ATCC, HS 578T, TD-47D, MDA-MB-468 and BT-549); assay: Anticancer activity, SRB assay, breast panel; assay type: cell-based, human
# Description: as §1, §2
# [2] = system: seven colon cancer cell line (COLO 205, HCC-2998, HCT-116, HCT-15, HT29, KM12 and SW-620); assay: Anticancer activity, SRB assay, colon panel; assay type: cell-based, human
# Description: as §1, §2
# SK-MEL-5 = assay: Anticancer activity, SRB assay, melanoma cell line SK-MEL-5; assay type: cell-based; conditions: Homo sapiens; Melanoma SK-MEL-5; 48 h continuous drug exposure; read-out: Growth Inhibition GI50
# Description: as §1, §2
# [3] = system: two prostate cancer cell line (PC-3, DU-145); assay: Anticancer activity, SRB assay, prostate panel; assay type: cell-based, human
# Description: as §1, §2
# OVCAR-8 = assay: Anticancer activity, SRB assay, ovarian cell line OVCAR-8; assay type: cell-based, human; conditions: Homo sapiens; Ovarian OVCAR-8; 48 h continuous drug exposure; —^b means GI50 values not attained at the concentrations used; read-out: Growth Inhibition GI50
# Description: as §1, §2
# HOP-62 = assay: Anticancer activity, SRB assay, non-small lung cell line HOP-62; assay type: cell-based, human; conditions: Homo sapiens; Non-small lung HOP-62; 48 h continuous drug exposure; —^b means GI50 values not attained at the concentrations used; read-out: Growth Inhibition GI50
# Description: as §1, §2
# NCI-H23 = assay: Anticancer activity, SRB assay, non-small lung cell line NCI-H23; assay type: cell-based; conditions: Homo sapiens, Non-small lung NCl-H23, 48 h continuous drug exposure, read-out: Growth Inhibition GI50
# Description: as §1, §2
# HCT-116 = assay: Anticancer activity, SRB assay, colon cell line HCT-116; assay type: cell-based; conditions: Homo sapiens; Colon HCT-116; 48 h continuous drug exposure; read-out: Growth Inhibition GI50
# Description: as §1, §2
# NCI-H226 = assay: Anticancer activity, SRB assay, non-small lung cell line NCI-H226; assay type: cell-based, human; conditions: Homo sapiens, NCI-H226; Non-small lung NCl-H226; 48 h continuous drug exposure; —^b means GI50 values not attained at the concentrations used; read-out: Growth Inhibition GI50
# Description: as §1, §2
# SN12C = assay: Anticancer activity, SRB assay, renal cell line SN12C; assay type: cell-based, human; conditions: Homo sapiens, 48 h continuous drug exposure, —^b means GI50 values not attained at the concentrations used, read-out: Growth Inhibition GI50
# Description: as §1, §2
# EKVX = assay: Anticancer activity, SRB assay, non-small lung cell line EKVX; assay type: cell-based; conditions: Homo sapiens, 48 h continuous drug exposure, read-out: Growth Inhibition GI50
# Description: as §1, §2
# MDA-MB-231/ATCC = assay: Anticancer activity, SRB assay, breast cell line MDA-MB-231/ATCC; assay type: cell-based; conditions: Homo sapiens; Breast MDA-MB-231/ATCC; 48 h continuous drug exposure; read-out: Growth Inhibition GI50
# Description: as §1, §2
# [4] = system: seven ovarian cancer cell lines (IGROV1, OVCAR-3, OVCAR-4, OVCAR-5, OVCAR-8, NCI/ADR-RES and SK-OV-3); assay: Anticancer activity, SRB assay, ovarian panel; assay type: cell-based, human
# Description: as §1, §2
# HL-60(TB) = assay: Anticancer activity, SRB assay, leukemia cell line HL-60(TB); assay type: cell-based; conditions: Homo sapiens; Leukemia HL-60(TB); 48 h continuous drug exposure; read-out: Growth Inhibition GI50
# Description: as §1, §2
# NCI-H522 = assay: Anticancer activity, SRB assay, non-small lung cell line NCI-H522; assay type: cell-based, human; conditions: Homo sapiens, NCI-H522; Non-small lung NCl-H522; 48 h continuous drug exposure; —^b means GI50 values not attained at the concentrations used; read-out: Growth Inhibition GI50
# Description: as §1, §2
# MOLT-4 = assay: Anticancer activity, SRB assay, leukemia cell line MOLT-4; assay type: cell-based; conditions: Homo sapiens; Leukemia MOLT-4; 48 h continuous drug exposure; read-out: Growth Inhibition GI50
# Description: as §1, §2
# SW-620 = assay: Anticancer activity, SRB assay, colon cell line SW-620; assay type: cell-based; conditions: Homo sapiens; Colon SW-620; 48 h continuous drug exposure; read-out: Growth Inhibition GI50
# Description: as §1, §2
# [5] = system: six CNS cancer cell line (SF-268, SF-295, SF-539, SNB-19, SNB-75 and U251); assay: Anticancer activity, SRB assay, CNS panel; assay type: cell-based, human
# Description: as §1, §2
# IGROV1 = assay: Anticancer activity, SRB assay, ovarian cell line IGROV1; assay type: cell-based, human; conditions: Homo sapiens, IGROV-1, 48 h continuous drug exposure, —^b means GI50 values not attained at the concentrations used, read-out: Growth Inhibition GI50
# Description: as §1, §2
# SF-268 = assay: Anticancer activity, SRB assay, CNS cell line SF-268; assay type: cell-based, human; conditions: Homo sapiens; CNS SF-268; 48 h continuous drug exposure; —^b means GI50 values not attained at the concentrations used; read-out: Growth Inhibition GI50
# Description: as §1, §2
# RPMI-8226 = assay: Anticancer activity, SRB assay, leukemia cell line RPMI-8226; assay type: cell-based; conditions: Homo sapiens; Leukemia RPMI-8226; 48 h continuous drug exposure; read-out: Growth Inhibition GI50
# Description: as §1, §2
# K-562 = assay: Anticancer activity, SRB assay, leukemia cell line K-562; assay type: cell-based; conditions: Homo sapiens, K562; Leukemia K-562; 48 h continuous drug exposure; read-out: Growth Inhibition GI50
# Description: as §1, §2
smiles,measurement,setting,value
"Cc1cc(C#Cc2ccccc2)ccc1-n1c(/C=C/c2cc(O)ccc2O)nc2ccccc2c1=O [Compound 4c, (E)-2-(2,5-Dihydroxystyryl)-3-(2-methyl-4-(phenylethynyl)phenyl)quinazolin-4(3H)-one]",GI50,A498,370 nM
same,GI50,OVCAR-4,2400 nM
same,GI50,HS 578T,1540 nM
same,mean graph midpoint values (MG_MID) of log10 TGI (Log10TGI50),"[1]; Breast, log value of concentration of the compound resulting in total inhibition of net cell growth",−5.39
same,mean graph midpoint values (MG_MID) of Log10LC50,"[1]; Breast, log value of the concentration of compounds leading to 50% net cell death",−4.66
same,mean graph midpoint values (MG_MID) of Log10GI50,"[1]; Breast, log values of concentration in mol/L causing 50% inhibition of net cell growth",−5.84 mol/L
same,GI50,"[1]; Homo sapiens, six breast cancer cell line, exposure period of at least 48 h, read-out: GI50 (range over the panel)",1140 to 1610 nM
same,mean graph midpoint values (MG_MID) of log10 TGI (Log10TGI50),"[2]; Colon, log value of concentration of the compound resulting in total inhibition of net cell growth",−5.53
same,mean graph midpoint values (MG_MID) of Log10LC50,"[2]; Colon, log value of the concentration of compounds leading to 50% net cell death",−5.23
same,mean graph midpoint values (MG_MID) of Log10GI50,"[2]; Colon, log values of concentration in mol/L causing 50% inhibition of net cell growth",−5.83 mol/L
same,GI50,"[2]; Homo sapiens, seven colon cancer cell line, exposure period of at least 48 h, read-out: GI50 (range over the panel)",1030 to 1950 nM
same,GI50,SK-MEL-5,1350 nM
same,GI50,"[3]; Homo sapiens, DU-145, two prostate cancer cell line, exposure period of at least 48 h, read-out: GI50 (range over the panel)",419 to 2190 nM
same,mean graph midpoint values (MG_MID) of log10 TGI (Log10TGI50),"[3]; Prostate, log value of concentration of the compound resulting in total inhibition of net cell growth",−5.43
same,mean graph midpoint values (MG_MID) of Log10LC50,"[3]; Prostate, log value of the concentration of compounds leading to 50% net cell death",−4.68
same,mean graph midpoint values (MG_MID) of Log10GI50,"[3]; Prostate, log values of concentration in mol/L causing 50% inhibition of net cell growth",−6.17 mol/L
same,GI50,OVCAR-8,1940 nM
same,GI50,HOP-62,1710 nM
same,GI50,NCI-H23,1480 nM
same,GI50,HCT-116,1460 nM
same,GI50,NCI-H226,1520 nM
same,GI50,SN12C,1620 nM
same,GI50,EKVX,1240 nM
same,GI50,MDA-MB-231/ATCC,1560 nM
same,GI50,"[4]; Homo sapiens, seven ovarian cancer cell lines, exposure period of at least 48 h, read-out: GI50 (range over the panel)",1390 to 2450 nM
same,mean graph midpoint values (MG_MID) of log10 TGI (Log10TGI50),"[4]; Ovarian, log value of concentration of the compound resulting in total inhibition of net cell growth",−5.31
same,mean graph midpoint values (MG_MID) of Log10LC50,"[4]; Ovarian, log value of the concentration of compounds leading to 50% net cell death",−4.61
same,mean graph midpoint values (MG_MID) of Log10GI50,"[4]; Ovarian, log values of concentration in mol/L causing 50% inhibition of net cell growth",−5.72 mol/L
same,GI50,HL-60(TB),634 nM
same,GI50,NCI-H522,1290 nM
same,GI50,MOLT-4,1140 nM
same,GI50,SW-620,1710 nM
same,mean graph midpoint values (MG_MID) of log10 TGI (Log10TGI50),"[5]; CNS, log value of concentration of the compound resulting in total inhibition of net cell growth",−5.50
same,mean graph midpoint values (MG_MID) of Log10LC50,"[5]; CNS, log value of the concentration of compounds leading to 50% net cell death",−5.15
same,mean graph midpoint values (MG_MID) of Log10GI50,"[5]; CNS, log values of concentration in mol/L causing 50% inhibition of net cell growth",−5.85 mol/L
same,GI50,"[5]; Homo sapiens, six CNS cancer cell line, exposure period of at least 48 h, read-out: GI50 (range over the panel)",1300 to 1620 nM
same,GI50,IGROV1,2450 nM
same,GI50,SF-268,1310 nM
same,GI50,RPMI-8226,1260 nM
same,GI50,K-562,1420 nM

# From US8680272B2, “3-arylethynyl substituted quinazolinone compounds” (Council of Scientific & Industrial Research, priority 2011, dated 2014)
